From patent EP2487185A1, “Hexapeptide with improved activity in the repair of cellular DNA of dermal cells” (Clinuvel Pharmaceuticals Limited, priority 2011, dated 2012)
Non-standard residues stand in square brackets, D forms with d. Nle = CCCC[C@H](N)C(=O)O

How the values were obtained:
Format in all cases: cell-based, human
melanocytes strain 105c = experiment: cAMP levels, radioimmunoassay; conditions: 45 min, 0.1 mM IBMX
Protocol: Dose-response experiments were carried out on three melanocytic strains, namely strains 1513c, 1505b and 105c melanocytes were treated with 1 pM-10 nM CUV9900 or NDP-MSH, or with 0.1-10 nM MSH for 45 minutes in the presence of 0.1 mM isobutyl methylxanthine (IBMX). The results obtained from strain 1513c are shown in Fig. 3, the results obtained from strain 1505b are shown in Fig. 5a and the results obtained from strain 105c are shown in Fig. 5b. The strains 1505b and 1513c were obtained from the same human adult while the strain 105c was obtained from another human adult.
Cyclic AMP is the second messenger for the melanocortin-1 receptor, and assessment is usually performed indicating cellular activity reflective of melanogenesis. Cyclic AMP levels were determined using ^125I-labeled radioimmunoassay kit (Perkin Elmer, Waltham, MA), in human melanocytes that were treated with 0 (control), 0.1-10.0 nM α-MSH, or 0.001-10 nM NDP-MSH or 0.001-10.0 nM CUV 9900 for 45 min. in the presence of 0.1 mM IBMX, a phosphodiesterase inhibitor to prevent cAMP degradation. Triplicate wells were included in each group, and duplicate samples from each well were assayed for cAMP levels. Each data point is the mean percent of control of 6 determinations/group ±S.E.

[1] = tested on: melanocytic strain 1505b and melanocytic strain 10.3c; experiment: UV-induced generation of hydrogen peroxide, luminol luminescence; conditions: 1 nM; for UV-induced hydrogen peroxide generation: 105 mJ/cm^2 UV, 0, 30 and 45 minutes after UV irradiation
Source text: (§1) With reference to Figs. 10 and 11, melanocytes were irradiated with a bank of FS 20 lamps, with 75% emission in the UVB, and 25% emission in the UVA spectra, with peak emission at 313 nm wavelength. Any emission of UVC rays from the UV source (FS 20 lamps) was blocked by Kodacel filter. Prior to irradiation, the culture medium was replaced by PBS, which was removed after UV exposure, and fresh medium added.
(§2) Melanocytes were irradiated with 105 mJ/cm^2 UV, and treated immediately while in PBS with 0, 1 nM α-MSH or 1 nM CUV9900. Generation of hydrogen peroxide, representative of reactive oxygen species (ROS), was determined by measuring the luminescence of luminol at 0, 30, and 45 min after UV exposure. Triplicate dishes were included in each group, and duplicate samples from each dish were used for measurement of hydrogen peroxide at each time point. Each data point represents the mean of 6 determinations/group ±S.E.

[2] = tested on: melanocytic strains 1563c and 102b; experiment: Ultrastructural visualization of DOPA-stained HM, electron microscopy; conditions: 0.1 nM or 1 nM CUV9900 or 1 nM MSH
Protocol: (§3) With reference to Figs. 14 and 15, two melanocytic strains, a lightly pigmented strain 1563c of Fig. 14 and strain 102b of Fig. 15 were plated in 4-well chamber slides and treated […] with either 0.1 nM or 1 nM CUV9900 or 1 nM MSH for a total of 6 days. Cells were processed for electron microscopy in the presence or absence of histochemical reaction with DOPA. Microtome sections were analyzed in a JEOL JEM-1230 transmission electron microscope and photomicrographs (15,000 X) of the perinuclear area and dendrites were taken for each experimental group.

melanocyte strain 1513c = experiment: Tyrosinase activity as a measure of stability / residual effect; conditions: strain 1513c; 1 nM peptide incubated 5-7 hours at 37 degrees Celsius
Protocol: To determine the residual effect of CUV9900, as compared to NDP-MSH and α-MSH, on tyrosinase activity, melanocytes were treated with either CUV9900 or NDP-MSH at the concentrations previously described for a total of 3 days. Tyrosinase activity was measured at the end of the 3 days of treatment, and 2 and 4 days after maintenance of the melanocytes in the complete absence of any treatment. With continued reference to Figs. 7, 8 and 9, to determine the stability of CUV9900 versus that of NDP-MSH and α-MSH, melanocytes were treated with 1 nM of each peptide, namely with CUV9900, NDP-MSH and α-MSH, for a total of 6 days, or with 1 nM peptides that were incubated for 5 hours at 37 °C prior to addition to the cultures, every other day, for a total of 6 days. Tyrosinase activity was measured at the end of treatment. In the experiments, cell number represents the mean percent of control of 3 determinations/ group ±SE, and tyrosinase activity data represent the mean percent of control of 6 determinations ±S.E. It should be noted that for the sake of reproducibility the experiment of strain 1513c of Fig. 9 was performed once more 6 months later than the experiment of Fig. 7. […] Melanocytes were treated for 3 days with the designated concentrations of CUV9900, NDP-MSH, or MSH, then maintained in absence of peptides for 4 days. Tyrosinase activity was determined 3 days after treatment. Comparison of stability of CUV9900, NDP-MSH and MSH was compared in 1513c, as shown in Fig. 7; the strain was treated for 6 days with 1 nM CUV9900, NDP-MSH or MSH with fresh medium and peptide replenished every 2 days. Melanocytes were treated according to the same experiment protocol but each peptide was incubated for 5-7 hours at 37 degrees Celsius. […] The assessment of tyrosinase was statistically different from control, as determined by ANOVA (p=<0.05).

melanocytic strain 10.3c = experiment: UV-induced generation of hydrogen peroxide (luminol luminescence); conditions: 1 nM, 105 mJ/cm^2 UV, 0, 30 and 45 minutes after UV
Source text: as §1, §2

melanocytic strain 1505b = experiment: as above; conditions: strain 1505b; 1 nM; 105 mJ/cm^2 UV; 0, 30 and 45 minutes after UV
Source text: as §1, §2

[3] = tested on: lightly pigmented strain 1563c and strain 102b; experiment: Ultrastructural visualization of DOPA-stained HM (electron microscopy); conditions: 0.1 nM or 1 nM CUV9900 or 1 nM MSH; strains 1563c and 102b
Protocol: as §3

| Substance | elevation of cAMP in comparison to NDP (melanocytes strain 105c; 0.01 nM and 0.1 nM) | cAMP compared with MSH (melanocytes strain 105c; 0.1 nM, 1 nM and 10 nM) | UV-induced hydrogen peroxide generation [1] | hydrogen peroxide generation in comparison with both NDP-MSH and MSH ([1]; at 45 minutes after irradiation) | melanosomes in the perinuclear area and dendrites [2] | effect of incubation of the peptide on stimulation of tyrosinase activity (melanocyte strain 1513c) | UV-induced hydrogen peroxide generation (melanocytic strain 10.3c) | UV-induced hydrogen peroxide generation (melanocytic strain 1505b) | melanosomes, electron microscopy [3] |
| --- | --- | --- | --- | --- | --- | --- | --- | --- | --- |
| Ac-Nle-Glu His-D-Phe-Arg-Trp-NH2 (SEQ ID NO: 1) (Ac-[Nle]EH[dF]RW-NH2; SMILES CCCC[C@H](NC(C)=O)C(=O)N[C@@H](CCC(=O)O)C(=O)N[C@@H](Cc1c[nH]cn1)C(=O)N[C@H](Cc1ccccc1)C(=O)N[C@@H](CCCNC(=N)N)C(=O)N[C@@H](Cc1c[nH]c2ccccc12)C(N)=O) [CUV9900] | less elevation of cAMP | significantly higher | significant reduction | lower hydrogen peroxide generation | increased mature (stage IV) melanosomes | – | – | – | – |
| Ac-Ser-Tyr-Ser-Met-Glu-His-Phe-Arg-Trp-Gly-Lys-Pro-Val-NH2 [alpha-MSH, reference compound] | – | – | – | – | – | totally abolished its effect on tyrosinase activity | significant reduction of UV-induced hydrogen peroxide generation | significant reduction of UV-induced hydrogen peroxide generation | increased mature (stage IV) melanosomes in the perinuclear area and more so in dendrites |
| Ac-Ser-Tyr-Ser-Met-Glu-His-Phe-Arg-Trp-Gly-Lys-Pro-Val-NH2 (SEQ ID NO: 3) [alpha-MSH, reference compound] | – | – | significant reduction | – | increased mature (stage IV) melanosomes | – | – | – | – |
